Laboratory results as given in US5081242A, “6-benzoxazinyl- and 6-benzothiazinyl 2,3,4,5-tetrahydropyridazin-3-ones” (Ortho Pharmaceutical Corporation, priority 1991, dated 1992).

How the values were obtained:
[1] = target: cyclic nucleotide phosphodiesterase; assay: Phosphodiesterase inhibitory activity (cyclic AMP hydrolysis); format: biochemical; conditions: read-out: IC50 (50% inhibition of cyclic nucleotide phosphodiesterase activity); cyclic AMP 0.10-1.0 μM, pH 7.4
adult mongrel dogs = assay: Cardiotonic activity in anesthetized dogs (myocardial contractile force, i.v.); format: in vivo; conditions: Canis lupus familiaris, iv, vs pretreatment control, read-out: CF: Percent increase in cardiac force; for change in vivo at 0.47 mg/kg: i.v. dose 0.47 mpk; for change in vivo at 0.075 mg/kg: i.v. dose 0.075 mpk; for change in vivo at 1.87 mg/kg: i.v. dose 1.87 mpk
Protocol: The cardiotonic activity of the compounds was determined in accordance with the method of Alousi, A. A., et al., J. Cir. Res. 45, 666 (1979). Basically, adult mongrel dogs were anesthetized with sodium pentobarbital and artificially respired. Arterial pressure was recorded via a femoral artery and the pressure pulse used to trigger a cardiotachometer for heart rate. Left ventricular pressure was measured with a Millar catheter and dP/dt was derived. Cardiac output was determined by measuring ascending aortic blood flow with an electromagnetic flow probe and myocardial contractile force was measured with a Walton Brodie strain gauge sutured to the right ventricle. Lead II EKG was also recorded. A standard does of dopamine was administered to assess myocardial responsiveness. Test compounds were administered by i.v. infusion or bolus administration and the effects on cardiovascular parameters were determined. Dose-related effects of the test compound on BP, HR, dP/dt max., C.F. and C.O. were compared to pretreatment control values and expressed as a percentage change.

Row | Compound | IC50 [1] [µM] | change in vivo at 0.47 mg/kg (adult mongrel dogs) [%] | change in vivo at 0.075 mg/kg (adult mongrel dogs) [%] | change in vivo at 1.87 mg/kg (adult mongrel dogs) [%]
1 | CC1CNc2cc(C3=NNC(=O)CC3)ccc2O1 (racemic) [Example 18, 6-(3,4-Dihydro-2-methyl-1,4(2H)-benzoxazin-6-yl)-2,3,4,5-tetrahydropyridazin-3-one] | 8 | 50 |  | 
2 | CN1C(=O)CSc2ccc(C3=NNC(=O)CC3)cc21 [Example 54, 6-(3,4-Dihydro-4-methyl-3-oxo-1,4[2H]-benzothiazin-6-yl)-2,3,4,5-tetrahydropyridazin-3-one] | 22 |  | 11 | 
3 | CC1CC(=O)NN=C1c1ccc2c(c1)OCC(=O)N2 (racemic) [Example 46, 6-(3,4-Dihydro-3-oxo-1,4(2H)-benzoxazin-7-yl)-2,3,4,5-tetrahydro-5-methylpyridazin-3-one] | 0.3 |  | 130 | 
4 | O=C1CCC(c2ccc3c(c2)NC(=O)CO3)=NN1 [Example 20, 6-(3,4-Dihydro-3-oxo-1,4(2H)-benzoxazin-6-yl)-2,3,4,5-tetrahydropyridazin-3-one] | 630 |  |  | 71
5 | CC1Oc2ccc(C3=NNC(=O)CC3)cc2NC1=O (racemic) [Example 24, 6-(3,4-Dihydro-2-methyl-3-oxo-1,4(2H)-benzoxazin-6-yl)-2,3,4,5-tetrahydropyridazin-3-one] | 14 | 54 |  | 
6 | Cc1cc2c(cc1C1=NNC(=O)CC1)N(C)C(=O)C(C)O2 (racemic) [Example 33, 6-(3,4-Dihydro-2,4,7-trimethyl-3-oxo-1,4(2H)-benzoxazin-6-yl)-2,3,4,5-tetrahydropyridazin-3-one] | 30 | 8 |  | 
7 | Cc1cc2c(cc1C1=NNC(=O)CC1)NC(=O)CO2 [Example 28, 6-(3,4-Dihydro-7-methyl-3-oxo-1,4(2H)-benzoxazin-6-yl)-2,3,4,5-tetrahydropyridazin-3-one] | 15 | 46 |  | 
8 | Cc1cc2c(cc1C1=NNC(=O)CC1C)NC(=O)CO2 (racemic) [Example 30, 6-(3,4-Dihydro-7-methyl-3-oxo-1,4(2H)-benzoxazin-6-yl)-2,3,4,5-tetrahydro-5-methylpyridazin-3-one] | 20 | 124 |  | 
9 | CC1CC(=O)NN=C1c1ccc2c(c1)N(C)C(=O)CO2 (racemic) [Example 23, 6-(3,4-Dihydro-4-methyl-3-oxo-1,4(2H)-benzoxazin-6-yl)-2,3,4,5-tetrahydro-5-methylpyridazin-3-one] | 8 | 134 |  | 
10 | CN1N=C(c2ccc3c(c2)N(S(C)(=O)=O)CCO3)CCC1=O [Example 9, 6-(3,4-Dihydro-4-methanesulfonyl-1,4(2H)-benzoxazin-6-yl)-2,3,4,5-tetrahydro-2-methylpyridazin-3-one] | 100 |  |  | 62
11 | CC1CC(=O)NN=C1c1ccc2c(c1)NC(=O)C(C)O2 (centres unmarked) [Example 26, 6-(3,4-Dihydro-2-methyl-3-oxo-1,4(2H)-benzoxazin-6-yl)-2,3,4,5-tetrahydro-5-methylpyridazin-3-one] | 5 | 156 |  | 
12 | Cc1cc2c(cc1C1=NNC(=O)CC1)N(C)C(=O)CO2 [Example 29, 6-(3,4-Dihydro-4,7-dimethyl-3-oxo-1,4(2H)-benzoxazin-6-yl)-2,3,4,5-tetrahydropyridazin-3-one] | 56 | 12 |  | 
13 | CC1CC(=O)NN=C1c1ccc2c(c1)NCCO2 (racemic) [Example 15, 6-(3,4-Dihydro-1,4(2H)-benzoxazin-6-yl)-2,3,4,5-tetrahydro-5-methylpyridazin-3-one] | 8 |  |  | 125
14 | CC1CC(=O)NN=C1c1ccc2c(c1)N(C1CCCC1)C(=O)C(C)O2 (centres unmarked) [Example 37, 6-(3,4-Dihydro-4-cyclopentyl-2-methyl-3-oxo-1,4(2H)-benzoxazin-6-yl)-2,3,4,5-tetrahydro-5-methylpyridazin-3-one] | 8 | 4 |  | 
15 | Cc1cc(C2=NNC(=O)CC2C)c2c(c1)N(C)C(=O)CO2 (centres unmarked) [Example 41, 6-(3,4-Dihydro-4,6-dimethyl-3-oxo-1,4(2H)-benzoxazin-8-yl)-2,3,4,5-tetrahydro-5-methylpyridan-3-one] | 7 | 60 |  | 
16 | CC(=O)N1CCOc2ccc(C3=NNC(=O)CC3C)cc21 (racemic) [Example 16, 6-(4-Acetyl-3,4-dihydro-1,4(2H)-benzoxazin-6-yl)-2,3,4,5-tetrahydro-5-methylpyridazin-3-one] | 30 |  |  | 173
17 | CC1CC(=O)NN=C1c1ccc2c(c1)N(S(C)(=O)=O)CCO2 (racemic) [Example 17, 6-(3,4-Dihydro-4-methanesulfonyl-1,4(2H)-benzoxazin-6-yl)-2,3,4,5-tetrahydro-5-methylpyridazin-3-one] | 4 |  |  | 62

Row | Compound | IC50 [1] [µM] | change in vivo at 0.47 mg/kg (adult mongrel dogs) [%] | change in vivo at 0.075 mg/kg (adult mongrel dogs) [%] | change in vivo at 1.87 mg/kg (adult mongrel dogs) [%]
18 | C=CCN1N=C(c2ccc3c(c2)N(S(C)(=O)=O)CCO3)CCC1=O [Example 11, 6-(3,4-Dihydro-4-methanesulfonyl-1,4(2H)-benzoxazin-6-yl)-2,3,4,5-tetrahydro-2-(2-propenyl)pyridazin-3-one] |  |  |  | 41
19 | CC1Oc2ccc(C3=NNC(=O)CC3)cc2N(C)C1=O (racemic) [Example 25, 6-(3,4-Dihydro-2,4-dimethyl-3-oxo-1,4(2H)-benzoxazin-6-yl)-2,3,4,5-tetrahydropyridazin-3-one] | 13 | 31 |  | 
20 | O=C1CCC(c2ccc3c(c2)NC(=O)CS3)=NN1 [Example 53, 6-(3,4-Dihydro-3-oxo-1,4[2H]-benzothiazin-6-yl)-2,3,4,5-tetrahydropyridazin-3-one] | 25 |  | 21 | 
21 | O=C1CCC(c2ccc3c(c2)NCCO3)=NN1 [Example 12, 6-(3,4-Dihydro-1,4(2H)-benzoxazin-6-yl)-2,3,4,5-tetrahydropyridazin-3-one] |  |  |  | 92
22 | CCCCCN1N=C(c2ccc3c(c2)N(S(C)(=O)=O)CCO3)CCC1=O [Example 10, 6-(3,4-Dihydro-4-methanesulfonyl-1,4(2H)-benzoxazin-6-yl)-2,3,4,5-tetrahydro-2-pentylpyridazin-3-one] |  |  |  | 18
23 | CC(=O)N1CCOc2ccc(C3=NNC(=O)CC3)cc21 [Example 13, 6-(4-Acetyl-3,4-dihydro-1,4(2H)-benzoxazin-6-yl)-2,3,4,5-tetrahydropyridazin-3-one] | 100 |  |  | 71
24 | Cc1cc(C2=NNC(=O)CC2)c2c(c1)N(C)C(=O)CO2 [Example 39, 6-(3,4-Dihydro-4,6-dimethyl-3-oxo-1,4(2H)-benzoxazin-8-yl)-2,3,4,5-tetrahydropyridazin-3-one] | 28 | 18 |  | 
25 | CC1CC(=O)NN=C1c1ccc2c(c1)NC(=O)CO2 (racemic) [Example 22, 6-(3,4-Dihydro-3-oxo-1,4(2H)-benzoxazin-6-yl)-2,3,4,5-tetrahydro-5-methylpyridazin-3-one] | 2 | 136 |  | 
26 | CC1CC(=O)NN=C1c1ccc2c(c1)N(C)C(=O)C(C)O2 (centres unmarked) [Example 27, 6-(3,4-Dihydro-2,4-dimethyl-3-oxo-1,4(2H)-benzoxazin-6-yl)-2,3,4,5-tetrahydro-5-methylpyridazin-3-one] | 6 | 117 |  | 
27 | Cc1cc2c(cc1C1=NNC(=O)CC1C)N(C)C(=O)CO2 (racemic) [Example 31, 6-(3,4-Dihydro-4,7-dimethyl-3-oxo-1,4(2H)-benzoxazin-6-yl)-2,3,4,5-tetrahydro-5-methylpyridazin-3-one] | 38 | 33 |  | 
28 | Cc1cc2c(cc1C1=NNC(=O)CC1)OCC(=O)N2C [Example 43, 6-(3,4-Dihydro-4,6-dimethyl-3-oxo-1,4(2H)-benzoxazin-7-yl)-2,3,4,5-tetrahydropyridazin-3-one] | 35 | 104 |  | 
29 | Cc1cc2c(c(C3=NNC(=O)CC3)c1)OCC(=O)N2 [Example 38, 6-(3,4-Dihydro-6-methyl-3-oxo-1,4(2H)-benzoxazin-8-yl)-2,3,4,5-tetrahydropyridazin-3-one] | 31 | 24 |  | 
30 | CN1C(=O)COc2ccc(C3=NNC(=O)CC3)cc21 [Example 21, 6-(3,4-Dihydro-4-methyl-3-oxo-1,4(2H)-benzoxazin-6-yl)-2,3,4,5-tetrahydropyridazin-3-one] | 18 | 74 |  | 
31 | CC1CC(=O)NN=C1c1ccc2c(c1)N(C(C)C)C(=O)C(C)O2 (centres unmarked) [Example 36, 6-(3,4-Dihydro-2-methyl-4-(1-methylethyl)-3-oxo-1,4(2H)-benzoxazin-6-yl)-2,3,4,5-tetrahydro-5-methylpyridazin-3-one] | 24 | 40 |  | 
32 | CS(=O)(=O)N1CCOc2ccc(C3=NNC(=O)CC3)cc21 [Example 8, 6-(3,4-Dihydro-4-methanesulfonyl-1,4(2H)-benzoxazin-6-yl)-2,3,4,5-tetrahydropyridazin-3-one] | 9.5 |  |  | 98
33 | Cc1cc2c(c(C3=NNC(=O)CC3C)c1)OCCN2 (centres unmarked) [Example 42, 6-(3,4-Dihydro-6-methyl-1,4(2H)-benzoxazin-8-yl)-2,3,4,5-tetrahydro-5-methylpyridazin-3-one] |  | 15 |  | 
